Columns and labels:
[1] = system: protease activity of breast cancer specimen; assay: Gelatin digestion by breast cancer specimen collected by paracentesis and suction, pretreated with TIMP-1 and TIMP-2, on gelatin thin membrane; type: cell-based, human; details: one breast cancer specimen suspended in buffer with 10 μg/ml of TIMP-1 and TIMP-2 together; 37° C., 16 hours
Description: Abreast cancer specimen collected by paracentesis and suction was suspended in a phosphate buffer containing 0.5% of polyvinylpyrrolidone, and adhered to a gelatin thin membrane disclosed in WO97/32035 by using a cytospin apparatus of Shandon Co., Ltd. at a speed of 400 rpm. The membrane thickness of gelatin was 7 μm. The gelatin membrane was incubated at 37° C. for 16 hours under 100% of relative humidity, and then dried in air. A solution in which Ponceau 3R was dissolved at a concentration of 0.8% in 6% trichloroacetic acid aqueous solution was used as a staining solution. The membrane was immersed in the solution at room temperature for 20 seconds for staining. […]
A breast cancer specimen collected by paracentesis and suction was suspended in a phosphate buffer containing 0.5% of polyvinylpyrrolidone and 10 μg/ml of TIMP-1 (tissue inhibitor of metalloproteinase-1) and TIMP-2, and adhered to a gelatin thin membrane disclosed in WO97/32035 by using a cytospin apparatus of Shandon Co., Ltd. at a speed of 400 rpm. […] When traces of digestion were detected in the same manner except for the treatments with TIMP-1 and TIMP-2 as a control, presence of distinct traces of digestion was observed.

[2] = system: Protease activity of breast cancer specimens; assay: Protease activity measurement of frozen breast cancer slices on gelatin thin membranes containing a matrix metalloproteinase inhibitor; type: biochemical, human; details: 20 breast cancer specimens; inhibitor contained in gelatin thin membrane; 37° C., 16 hours
Description: A breast cancer specimen, which was extracted by surgical operation and frozen, was sliced at −25° C. into slices having a thickness of 4 μm by using a cryostat, and adhered to a gelatin thin membrane disclosed in WO97/32035. The thickness of gelatin was 7 μm. This gelatin membrane was incubated at 37° C. for 16 hours under 100% of relative humidity, and then dried in air. A solution obtained by mixing a solution in which Ponceau 3R was dissolved at a concentration of 0.8% in 6% trichloroacetic acid aqueous solution and ethanol at a volume ratio of 3:7 was used as a staining solution. The membrane was immersed in the solution at room temperature for 4 minutes for staining. After the membrane was washed with water for 10 minutes, the membrane was then immersed in a Mayer's hematoxylin solution for 2 minutes for nuclear staining, and further washed with water for 10 minutes and dried in air. After the drying, a Cover Aid Film (Sakura Seiki Co., Ltd.) was adhered to the membrane using xylene to enclose the breast cancer slice. The film was held on a plastic mount and observed under an optical microscope. […]
Protease activity of breast cancer specimens, which were extracted by surgical operation and then frozen, was measured in the same manner as Example 1 using gelatin thin membranes containing a matrix metalloproteinase inhibitor (1,10-phenanthroline) disclosed in WO97/32035. […]

| Molecule | Gelatin digestion on sites where the cancer cells were present [1] | Protease activity (traces of digestion on gelatin thin membrane) [2] |
| --- | --- | --- |
| TIMP-1: tissue inhibitor of metalloproteinase-1 | not observed |  |
| c1cnc2c(c1)ccc1cccnc12 [1,10-phenanthroline] |  | suppressed in all specimens |
